Laboratory results: US12504425B2, “Blood vessel model” (FUJIFILM CORPORATION, priority 2017, dated 2025)

Tests used:
[1] = test system: layer of rat vascular endothelial cells and layer of rat smooth muscle cells on porous membrane; assay: FITC-Dextran permeability test of cell-layer-affixed blood vessel model after drug exposure; assay type: cell-based; settings: drug 500 ng/ml, 0.7 μL/min, one day, upper microchannel, imaged two minutes after running FITC-Dextran
Method: The cells employed in example 3 and comparative example 3 were the same as that employed in example 2 and comparative example 2. To form the cell layers, the lower microchannel was initially seeded with 100 μL of a cell suspension of rat smooth muscle cells having a cell concentration of 3×10^6 cells/ml. After a day of cultivation, the upper microchannel was seeded with 100 μL of a cell suspension of rat vascular endothelial cells having a cell concentration of 1×10^6 cells/ml and cultivated for six hours. Then, a respective culture medium (rat EC medium/SMC medium) was run through each channel with a rate of fluid delivery of 0.7 μL/min using a pump. After two days of cultivation, the cell-layer-affixed blood vessel models of example 3 and comparative example 3 were obtained. […]
Two minutes after running the FITC-Dextran through the channels, an inverted microscope (product name Eclipse Ts2, made by Nikon) was used to image fluorescence in the microchannels. […]
After drug exposure, a FITC-Dextran permeability test was performed using the same method as the FITC-Dextran permeability test for the cell-layer-affixed blood vessel models described above. […] In the cell-layer-affixed blood vessel model of comparative example 3, the fluorescence observed in the lower microchannel was minimal. […]

[2] = test system: layer of rat vascular endothelial cells and layer of rat smooth muscle cells on porous membrane; assay: fluorescent bead permeability test of cell-layer-affixed blood vessel model after drug exposure; assay type: cell-based; settings: drug 50 μg/ml, 0.7 μL/min, one day, both microchannels, 4 μm beads 1.81×10^6 beads/ml in upper microchannel
Method: In example 2 and comparative example 2, Rat Arterial Endothelial Cells produced by Angio-Proteomie were employed for the rat vascular endothelial cells, and Rat Aortic Smooth Muscle Cells produced by Lonza were employed for the rat smooth muscle cells. The lower microchannel was initially seeded with 100 μL of a cell suspension of rat smooth muscle cells having a cell concentration of 3×10^6 cells/ml. After a day of cultivation, the upper microchannel was seeded with 100 μL of a cell suspension of rat vascular endothelial cells having a cell concentration of 3×10^6 cells/ml. After two days of cultivation, the cell-layer-affixed blood vessel models of example 2 and comparative example 2 were obtained.
A culture medium dilution containing fluorescent beads at a concentration of 1.81×10^6 beads/ml for a tracer was run through the upper microchannel of the cell-layer-affixed blood vessel models produced in example 2 and comparative example 2, and a culture medium not containing fluorescent beads was run through the lower microchannel. […]

Row | FITC-Dextran fluorescence observed in the lower microchannel ([1]; blood vessel model of comparative example 3 (track-etched porous membrane)) | Molecule | FITC-Dextran fluorescence observed in the microchannels ([1]; blood vessel model of example 3 (honeycomb porous membrane)) | number of fluorescent beads inside the lower microchannel ([2]; blood vessel model of comparative example 2 (track-etched porous membrane)) | number of fluorescent beads inside the lower microchannel ([2]; blood vessel model of example 2 (honeycomb porous membrane))
1 | minimal | Oc1ccc(C2CNCCc3c2cc(O)c(O)c3Cl)cc1 (stereo not shown) [fenoldopam] | fluorescence was observed over a wide area, including in the lower microchannel | – | –
2 | – | cytochalasin | – | 6.7×10^3 beads/ml | 1.7×10^5 beads/ml
